The numbers were not newly measured in patent publication US20040115181A1, “Composition for transmucosal adminstration containing conenzyme q as the active ingredient” (priority 2001, published 2004), which cites them from elsewhere.

The structures appear in SMILES notation.

This data set concerns rats. Conditions: continuously administered for 52 weeks, 1.2 g/kg/day, J. Agric. Food Chem., 1999, Vol. 47, P3756-3763.

For the compound `COC1=C(OC)C(=O)C(C/C=C(\C)CC/C=C(\C)CC/C=C(\C)CC/C=C(\C)CC/C=C(\C)CC/C=C(\C)CC/C=C(\C)CC/C=C(\C)CC/C=C(\C)CCC=C(C)C)=C(C)C1=O` [coenzyme Q10], the “Toxicity in safety test” value is on record as “no toxicity is observed”.
